This assay addresses T1, Histone deacetylase 6 (Homo sapiens, UniProt Q9UBN7).
T1 sequence (Q9UBN7 whole entry): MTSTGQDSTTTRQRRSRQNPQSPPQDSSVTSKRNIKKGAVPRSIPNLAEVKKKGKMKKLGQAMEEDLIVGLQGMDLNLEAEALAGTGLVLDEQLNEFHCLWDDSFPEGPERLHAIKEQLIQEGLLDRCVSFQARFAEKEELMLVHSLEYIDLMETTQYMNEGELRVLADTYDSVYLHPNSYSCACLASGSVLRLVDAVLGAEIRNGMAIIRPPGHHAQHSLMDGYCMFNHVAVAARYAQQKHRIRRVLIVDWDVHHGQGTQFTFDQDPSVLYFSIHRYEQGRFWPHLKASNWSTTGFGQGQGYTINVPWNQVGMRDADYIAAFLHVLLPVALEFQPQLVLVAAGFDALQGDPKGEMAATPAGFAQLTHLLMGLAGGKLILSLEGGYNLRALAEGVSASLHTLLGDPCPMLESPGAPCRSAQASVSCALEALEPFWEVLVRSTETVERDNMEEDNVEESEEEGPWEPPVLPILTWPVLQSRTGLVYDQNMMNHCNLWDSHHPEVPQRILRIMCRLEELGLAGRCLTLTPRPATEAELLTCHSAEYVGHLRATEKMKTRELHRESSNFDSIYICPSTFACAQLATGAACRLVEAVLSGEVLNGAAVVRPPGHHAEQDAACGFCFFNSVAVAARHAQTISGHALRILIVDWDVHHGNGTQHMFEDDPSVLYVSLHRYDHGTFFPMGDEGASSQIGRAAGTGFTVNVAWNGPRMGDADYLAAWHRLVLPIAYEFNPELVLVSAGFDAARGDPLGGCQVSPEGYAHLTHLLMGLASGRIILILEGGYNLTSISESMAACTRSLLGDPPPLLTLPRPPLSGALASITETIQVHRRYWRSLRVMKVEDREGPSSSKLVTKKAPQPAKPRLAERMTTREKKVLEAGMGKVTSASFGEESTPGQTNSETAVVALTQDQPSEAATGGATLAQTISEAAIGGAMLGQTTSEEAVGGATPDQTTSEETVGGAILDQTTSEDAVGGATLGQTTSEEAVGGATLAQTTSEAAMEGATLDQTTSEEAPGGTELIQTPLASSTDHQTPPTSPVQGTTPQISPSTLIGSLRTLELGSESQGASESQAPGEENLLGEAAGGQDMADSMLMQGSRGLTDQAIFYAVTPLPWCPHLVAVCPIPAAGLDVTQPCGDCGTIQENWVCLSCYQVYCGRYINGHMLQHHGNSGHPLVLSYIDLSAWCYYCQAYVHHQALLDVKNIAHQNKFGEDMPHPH
Put plainly: HDAC Activity Assay. Particulars: 25 °C. The method, then:
The Fluor-de-Lys HDAC activity assay kit (Biomol) was used. Purified recombinant HDAC enzyme was incubated with Fluor-de-Lys substrate in the presence of test compounds. Fluor-de-Lys Developer was then added, and the mixture was incubated for another 10 min at room temperature. Fluorescence was measured using a fluorescent plate reader, with excitation 360 nm and emission 460 nm.

Usually IC50 stands for the concentration at which inhibition is half-maximal.

As to `NC(=O)c1ccc(C(=O)C(F)(F)F)cn1` [5-(2,2,2-trifluoroacetyl)pyridine-2-carboxamide], the IC50 was determined as 4.2 µM.
